Test system: murine squamous cell carcinoma (SCC VII)
Test: Antitumor effect (tumor size) in both-side side-abdomen implanted SCC VII tumor-bearing mice
Assay type: in vivo, C3H/He Slc mice
Settings: for antitumor effect (tumor size), tumor with administration of the drug (treated group): FIG. 1A, intratumoral administration on Day 0, 3, 6, compared to MOCK (saline solution), C-REV 1×10^6 pfu/100 μl, cGAMP 20 μg/100 μl; for antitumor effect (tumor size), tumor spaced apart from the tumor with administration of the drug (non-treated group): FIG. 1B / FIG. 2, tumor on opposite side of the abdomen received saline solution only, drug given to the other tumor on Day 0, 3, 6
Text: Six-week-old female C3H/He Slc mice (purchased from Chubu Kagaku Shizai Co., Ltd.) were used as mice. A tumor of murine squamous cell carcinoma (SCC VII; given by professor Shin-ichiro Masunaga, Kyoto University Institute for Integrated Radiation and Nuclear Science) was cut into 2 mmcubes, and two of the cubes were implanted under the skin on both sides of the abdomen of the mice by a tumor implantation needle (both-side side-abdomen implanted model). When the size of the tumor reached the size of 100 mm^3, grouping was performed. Although differing among the mice, one tumor end and the other tumor end were spaced apart from each other by about 10 mm.
First medicine: C-REV was suspended in a saline solution to obtain a concentration of 1×10^6 pfu/100 μl.
Second medicine: 2′3′-cGAMP (No. tlrl-nacga23 by Invivogen) was dissolved and suspended in a saline solution to obtain a concentration of 20 μg/100 μl.
Day 0: The first medicine of 100 μl was administered to a tumor (treated group) on one side of the abdomen. Further, a saline solution of 100 μl was administered to a tumor (non-treated group) on the other side of the abdomen. Day 3: The second medicine of 100 μl was administered to a tumor (treated group) on one side of the abdomen. Further, a saline solution of 100 μl was administered to a tumor (non-treated group) on the other side of the abdomen. Day 6: The second medicine of 100 μl was administered to a tumor (treated group) on one side of the abdomen. Further, a saline solution of 100 μl was administered to a tumor (non-treated group) on the other side of the abdomen.
The tumor size was calculated from multiplication of the longer diameter by the shorter diameter by the shorter diameter by 1/2 of a tumor.
(§1) The experiment was performed in the same procedure as for Example 1 except for administration of a saline solution of 100 μl on Day 3 and Day 6 instead of the administration of the second medicine to the treated group.
as §1, with “Example 1 except for administration of the second medicine on Day 0 instead of the administration of the first medicine to the treated group and except for” for “Example 1 except for”
as §1, with “Example 1 except for administration of a saline solution of 100 μl on Day 0 instead of the administration of the first medicine to the treated group and except for” for “Example 1 except for”
The experiment was performed in the same procedure as for Example 1 except for use of the hrR3 instead of the C-REV as the first medicine. […]

Compound	antitumor effect (tumor size), tumor with administration of the drug (treated group)	antitumor effect (tumor size), tumor spaced apart from the tumor with administration of the drug (non-treated group)
Nc1nc2c(ncn2[C@@H]2O[C@@H]3COP(=O)(O)O[C@H]4[C@@H](O)[C@H](n5cnc6c(N)ncnc65)O[C@@H]4COP(=O)(O)O[C@@H]2[C@@H]3O)c(=O)[nH]1 [cGAMP, 2′3′-cyclic GMP-AMP]	an antitumor effect was developed	almost no antitumor effect
Canerpaturev [C-REV]	an antitumor effect was developed	almost no antitumor effect

Reference: patent US20220273739A1, “COMBINATION DRUG FOR TREATING MALIGNANT TUMOR, PHARMACEUTICAL COMPOSITION FOR TREATING MALIGNANT TUMOR, AND PHARMACEUTICAL COMPOSITION FOR MALIGNANT TUMOR TREATMENT” (priority 2019, published 2022)
